From US6534496B1, “Thermogenic composition and benzazepine thermogenics” (Takeda Chemical Industries, Inc., priority 1997, dated 2003) come the findings set out here.

Counter-ions that a name gives are not always drawn.

`Cc1ccccc1CN1CCc2ccc(C(=O)CCCC3CCN(Cc4ccccc4)CC3)cc2CC1` (as salt: hydrochloride) [Example 129, 1-[3-[(2-Methylphenyl)methyl]-2,3,4,5-tetrahydro-1H-3-benzazepin-7-yl]-4-[1-(phenylmethyl)-4-piperidinyl]-1-butanone Dihydrochloride] returned a melting point of 191 to 194 °C.

`O=C(CCC1CCN(Cc2ccccc2C(F)(F)F)CC1)c1ccc2c(c1)CN(Cc1ccccc1)CCO2` (as salt: hydrochloride) [Example 12, 1-[4-(Phenylmethyl)-2,3,4,5-tetrahydro-1,4-benzoxazepin-7-yl]-3-[1-[(2-trifluoromethylphenyl)methyl]-4-piperidinyl]-1-propanone Dihydrochloride] returned a melting point of 223 to 225 °C.

`COC(=O)c1cccc(CN2CCC(CCCC(=O)c3ccc4c(c3)CCN(Cc3ccccc3)CC4)CC2)c1` (as salt: hydrochloride) [Example 152, Methyl 3-[[4-[4-[3-(phenylmethyl)-2,3,4,5-tetrahydro,-1H-3-benzazepin-7-yl]-4-oxobutyl]-1-piperidinyl]methyl]benzoate Dihydrochloride]: the melting point lay within 194 to 200 °C.

Turning to `O=C(CCC1CCN(Cc2cccc(-c3ccccc3)c2)CC1)c1ccc2c(c1)CN(Cc1ccc(F)cc1)CCO2` (as salt: hydrochloride) [Example 99, 1-[4-[(4-Fluorophenyl)methyl]-2,3,4,5-tetrahydro-1,4-benzoxazepin-7-yl]-3-[1-[(3-phenylphenyl)methyl]-4-piperidinyl]-1-propanone Ddihydrochloride], the melting point was in the range of 187 to 189 °C.

For the molecule `O=C(CCC1CCNCC1)c1ccc2c(c1)CCN(Cc1ccc(F)cc1)CC2` (as salt: hydrochloride), the melting point was 225 to 227 °C (dec.).

As to `CC(c1ccccc1)N1CCC(CCC(=O)c2ccc3c(c2)CN(Cc2ccc(F)cc2)CCO3)CC1` (stereo not shown) (as salt: hydrochloride), the melting point lay within 235 to 237 °C.

In turn, `Cc1ccccc1CN1CCc2ccc(C(=O)CCCC3CCN(Cc4ccccc4C(=O)O)CC3)cc2CC1` [Example 253, 2-[[4-[4-[3-[(2-Methylphenyl)methyl]-2,3,4,5-tetrahydro-1H-3-benzazepin-,7-yl]-4-oxobutyl]-1-piperidinyl]methyl)benzoic Acid] gave a melting point of 129 to 132 °C.

`CC(=O)N1CCC(CCC(=O)c2cc3c4c(c2)CCN4C(=O)CC3)CC1` [Example 66, 8-[3-(1-Acetyl-4-piperidinyl)-1-oxopropyl]-1,2,5,6-tetrahydro-4H-pyrrolo[3,2,1-ij]quinolin-4-one] came in with a melting point of 160 to 161 °C.

Molecule `CC(=O)N1CCC(CCC(=O)c2ccc3c(c2)CN(Cc2ccc(F)cc2)CCO3)CC1.Cl` showed a melting point of 186 to 188 °C.

Molecule `O=C(O)c1cccc(CN2CCC(CCCC(=O)c3ccc4c(c3)CCN(Cc3ccccc3)CC4)CC2)c1` (as salt: salt) [Example 158, 3-[[4-[4-[3-(Phenylmethyl)-2,3,4,5-tetrahydro-1H-benzazepin-7-yl]-4-oxobutyl)-1-piperidinyl]methyl]benzoic acid triethylamine Salt] gave a melting point of 150 to 158 °C.

`COc1ccc(CN2CCc3ccc(C(=O)CCC4CCN(Cc5ccc(Cl)c(Cl)c5)CC4)cc3CC2)cc1` (as salt: hydrochloride) [Example 96, 3-[1-[(3,4-Dichlorophenyl)methyl]-4-piperidinyl]-1-[3-[(4-methoxyphenyl)methyl]-2,3,34,5-tetrahydro-1H-3-benzazepin-7-yl]-1-propanone Dihydrochloride]: the melting point was 220 to 223 °C (dec.).

`Cc1ccccc1CN1CCC(CCC(=O)c2ccc3c(c2)CN(Cc2ccccc2)CCO3)CC1` (as salt: hydrochloride) had a melting point of 232 to 234 °C.

`COc1ccc(CN2CCc3ccc(C(=O)CCC4CCN(Cc5ccc(C(C)(C)C)cc5)CC4)cc3CC2)cc1` (as salt: hydrochloride) [Example 93, 1-[3-[(4-methbyphenyl)methyl]-2,3,4,5-tetrahydro-1H-3-benzazepin-7-yl]3-[1-[[4-(tert-butyl)phenyl]methyl]-4-piperidinyl]-1-propanone Dihydrochloride]: the melting point is 241 to 244 °C (dec.).

The molecule `O=C(CCC1CCNCC1)c1ccc2c(c1)CCN(Cc1ccccc1)CC2` [Example 24, 1-[3-(phenylmethyl)-2,3,4,5-tetrahydro-1H-3-benzazepin-7-yl]-3-(4-piperidinyl)-1-propanone] had a melting point of 134 to 137 °C.

With `O=C(CCC1CCN(Cc2ccc(-c3ccccc3)cc2)CC1)c1ccc2c(c1)CCN(Cc1ccc(F)cc1)CC2` (as salt: hydrochloride) [Example 49, 1-[3-[(4-Fluorophenyl)methyl]-2,3,4,5-tetrahydro-1H-3-benzazepin-7-yl]-3-[1-[(4-phenylphenyl)methyl]-4-piperidinyl]-1-propanone Dihydrochloride], the melting point was 225 to 228 °C (dec.).

Molecule `O=C(CCC1CCN(Cc2cccc(F)c2)CC1)c1ccc2c(c1)CN(Cc1ccc(F)cc1)CCO2` (as salt: hydrochloride) [Example 81, 3-[1-[(3-Fluorophenyl)methyl]-4-piperidiny]-1-[4-[(4-fluorophenyl)methyl]-2,3,4,5-tetrahydro-1,4-benzoxazepin-7-yl]-1-propanone Dihydrochloride] showed a melting point of 228 to 231 °C.

In the case of `O=C(CCCC1CCN(Cc2ccccc2Cl)CC1)c1ccc2c(c1)CCN(Cc1ccc(F)cc1F)CC2` (as salt: hydrochloride), the melting point fell in the range of 193 to 196 °C.

Take `O=C(CCCC1CCN(Cc2cccc(O)c2)CC1)c1ccc2c(c1)CCN(Cc1ccccc1)CC2` [Example 157, 4-[1-[(3-Hydroxyphenyl)methyl]-4-piperidinyl]-1-[3-(phenylmethyl)-2,3,4,5-tetrahydro-1H-3-benzazepin-7-yl]-1-butanone]: the melting point is 88 to 94 °C.

In the case of `O=C(CCC1CCN(Cc2cc(C(F)(F)F)cc(C(F)(F)F)c2)CC1)c1ccc2c(c1)CN(Cc1ccccc1)CCO2` (as salt: hydrochloride), the melting point lay in the range of 234 to 236 °C.

As to `COC(=O)c1ccc(CN2CCC(CCCC(=O)c3ccc4c(c3)CCN(Cc3ccccc3)CC4)CC2)cc1` (as salt: hydrochloride), the melting point was 239 to 244 °C (dec.).

Regarding `Cl.O=C(CCC1CCN(C(=O)c2ccccc2)CC1)c1ccc2c(c1)CCN(Cc1ccccc1)CC2`, the melting point fell in the range of 118 to 121 °C.

Molecule `O=C(CCCCC1CCN(Cc2ccccc2)CC1)c1ccc2c(c1)CCN(Cc1ccccc1)CC2` (as salt: hydrochloride) [Example 209, 5-[1-(Phenylmethyl)-4-piperidinyl]-1-[3-(phenylmethyl)-2,3,4,5-tetrahydro-1H-3-benzazepin-7-yl]-1-pentanone Dihydrochloride] displayed a melting point of 208 to 210 °C.

Regarding `Cc1ccc(CN2CCC(CCCC(=O)c3ccc4c(c3)CCN(Cc3ccc(Cl)cc3)CC4)CC2)cc1` (as salt: hydrochloride), the melting point was 230 to 234 °C.

Consider `O=C(CCCC1CCN(Cc2ccc([N+](=O)[O-])cc2)CC1)c1ccc2c(c1)CCN(Cc1ccccc1)CC2` (as salt: hydrochloride), for which the melting point was 242 to 247 °C (dec.).

`CC(=O)Nc1ccccc1CN1CCC(CCCC(=O)c2ccc3c(c2)CCN(Cc2ccccc2C)CC3)CC1` (as salt: hydrochloride) returned a melting point of 172 to 178 °C.
